These results are taken from patent publication US12522569B2, “Substituted benzimidazole derivative and use thereof” (Chengdu FANXI Biopharma Co., Ltd., priority 2020, dated 2026).

Holding throughout (format): cell-based
One test concerns the target T1, hPPARγ (LBD) (Homo sapiens, UniProt P37231).
T1 construct: The receptor expression plasmid (pSG5-GAL4-hPPARα or γ or δ (LBD)); GAL4 (fusion partner); expressed in transfected cells; host or cells: CV-1 cells (ATCC)
T1 sequence (P37231 238-503 limits assumed): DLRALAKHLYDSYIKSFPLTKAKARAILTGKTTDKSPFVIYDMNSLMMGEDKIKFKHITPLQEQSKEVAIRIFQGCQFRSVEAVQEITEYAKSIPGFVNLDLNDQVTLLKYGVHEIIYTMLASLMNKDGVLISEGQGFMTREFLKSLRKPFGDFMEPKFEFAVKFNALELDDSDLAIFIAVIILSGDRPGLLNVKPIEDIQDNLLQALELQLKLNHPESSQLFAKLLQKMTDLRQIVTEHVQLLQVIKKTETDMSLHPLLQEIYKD
The test can be described thus: GAL4-hPPARγ (LBD) luciferase reporter transactivation in CV-1 cells. Particulars: about 40 hours, relative to Rosiglitazone as 100%, read-out: PPAR activities EC50 PPARγ. The method, then:
(§1) The PPARδ activation effect of the compounds of the present invention was determined as follows (measurement of the PPAR activation effect of the test compounds (compounds in the examples)).
(§2) The receptor expression plasmid (pSG5-GAL4-hPPARα or γ or δ (LBD)), luciferase expression plasmid (pUC8-MH100×4-TK-Luc) and β-galactosidase expression plasmid (pCMX-β-GAL) (Kliewer, S. A. et. al., (1992) Nature, 358:771-774) were introduced into CV-1 cells (ATCC).
(§3) After gene introduction using the lipofection reagent DMRIE-C or Lipofectamin 2000 (Invitrogen), the cells were cultured in the presence of the test compound for 42 hours. Lysed cells were tested for luciferase activity and β-GAL activity.
(§4) The following methods were used to determine the PPAR activation effect of the tested compounds (compounds in the examples)
(§5) Receptor expression plasmid (pSG5-GAL4-hPPARα, 7 or 6 (LBD)), luciferase expression plasmid (pUC8-MH100×4-TK-Luc) and β-Galactosidase expression plasmid (pCMX-β-GAL) (Kilewer, S. A. et. al., (1992) Nature, 358: 771-774) were introduced into CV-1 cells (ATCC). After gene introduction using a lipofection reagent (Lipofectamine 2000 (Invitrogen)), the cells were cultured in the presence of the test compounds for about 40 hours.
In general terms: Reporter assays use an easily measured gene product as a stand-in for the process of interest.

The next test deals with T2, hPPARδ (LBD) (Homo sapiens, UniProt Q03181).
T2 construct: The receptor expression plasmid (pSG5-GAL4-hPPARα or γ or δ (LBD)); GAL4 (fusion partner); expressed in transfected cells; host or cells: CV-1 cells (ATCC)
T2 sequence (Q03181 211-439 limits assumed): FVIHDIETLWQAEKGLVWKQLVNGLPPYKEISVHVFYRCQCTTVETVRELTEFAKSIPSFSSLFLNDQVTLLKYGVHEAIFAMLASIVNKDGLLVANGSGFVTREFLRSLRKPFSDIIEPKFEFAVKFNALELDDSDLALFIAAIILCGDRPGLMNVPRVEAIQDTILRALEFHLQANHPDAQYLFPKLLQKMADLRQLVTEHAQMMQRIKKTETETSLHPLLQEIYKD
Description: GAL4-hPPARδ (LBD) luciferase reporter transactivation in CV-1 cells. The settings on record: about 40 hours, relative to GW-501516 as 100%, read-out: PPAR activities EC50 PPARδ. The method, then: as §1, §2, §3, §4, §5

In a further test the target is T3, hPPARα (LBD) (Homo sapiens, UniProt Q07869).
T3 construct: The receptor expression plasmid (pSG5-GAL4-hPPARα or γ or δ (LBD)); GAL4 (fusion partner); expressed in transfected cells; host or cells: CV-1 cells (ATCC)
T3 sequence (Q07869 239-466 limits assumed): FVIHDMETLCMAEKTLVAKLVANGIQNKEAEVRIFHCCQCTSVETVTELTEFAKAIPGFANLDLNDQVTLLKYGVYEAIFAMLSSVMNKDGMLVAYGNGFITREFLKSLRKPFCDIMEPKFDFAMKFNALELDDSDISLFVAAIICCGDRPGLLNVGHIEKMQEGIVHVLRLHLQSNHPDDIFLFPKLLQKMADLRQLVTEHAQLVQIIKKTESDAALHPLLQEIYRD
The test can be described thus: GAL4-hPPARα (LBD) luciferase reporter transactivation in CV-1 cells. The settings on record: about 40 hours, relative to GW-590735 as 100%, read-out: PPAR activities EC50 PPARα. The method, then: as §1, §2, §3, §4, §5

pEC50: −log10 of the molar value.

In general, pEC50 refers to −log10 of the EC50, conventionally taken in molar units. With `CCc1cc(COc2ccccc2Cn2c(CCc3ccc(Cl)cc3Cl)nc3cc(Br)ccc32)ccc1CCC(=O)O` [Compound 3, 3-(4-((2-((5-Bromo-2-(2.4-dichlorophenethyl)-1H-benzo[d]imidazol-1-yl)methyl)phenoxy)methyl)-2-ethylphenyl)propanoic acid], the pEC50 at hPPARγ (LBD) is 6.73; at hPPARδ (LBD), 7.44; on hPPARα (LBD), 6.98.
The corresponding values for `CCc1cc(COc2ccccc2Cn2c(CN3CCCC3)nc3cc(Br)ccc32)ccc1CCC(=O)O` [Compound 14] are 6.17, 6.85 and 5.47.
Turning to `CCc1cc(COc2ccccc2Cn2c(CCCN3CCCC3)nc3cc(Br)ccc32)ccc1OCC(=O)O` [Compound 15, 2-(4-((2-((5-Bromo-2-(3-(pyrrolidin-1-yl)propyl)-1H-benzo[d]imidazol-1-yl)methyl)phenoxy)methyl)-2-ethylphenoxy)acetic acid], the pEC50 was 5.04 at hPPARγ (LBD), 5.18 at hPPARδ (LBD) and 5.68 at hPPARα (LBD).
As to `CCc1cc(COc2ccccc2Cn2c(CCCN3CCCC3)nc3cc(Br)ccc32)ccc1CCC(=O)O` [Compound 17, 3-(4-((2-((5-Bromo-2-(3-(pyrrolidin-1-yl)propyl)-1H-benzo[d]imidazol-1-yl)methyl)-phenoxy)methyl)-2-ethylphenyl)propanoic acid], the pEC50 at hPPARγ (LBD) is 4.81; on hPPARδ (LBD) it was 4.38; at hPPARα (LBD), 5.52.
The corresponding values for `CCc1cc(COc2ccccc2Cn2c(CN3CCCC3)nc3cc(Br)ccc32)ccc1OCC(=O)O` [Compound 50] are 5.69, 6.10 and 5.40.
